{"source": "ChEMBL document CHEMBL4330132", "about": "“5-Keto-3-cyano-2,4-diaminothiophenes as selective maternal embryonic leucine zipper kinase inhibitors” (Bioorg Med Chem Lett, 2019)", "key": {"[1]": {"tested_on": "Epidermal growth factor receptor (Homo sapiens), P00533 [L858R]", "assay": "Binding affinity to human partial length EGFR L858R mutant (R669 to V1011 residues) expressed in bacterial expression system assessed as residual binding level at 1 uM by Kinomescan method relative to control"}, "[2]": {"target": "Interferon-induced, double-stranded RNA-activated protein kinase (Homo sapiens) (UniProt P19525)", "assay": "Binding affinity to wild-type human partial length PRKR (F247 to C551 residues) expressed in bacterial expression system assessed as residual binding level at 1 uM by Kinomescan method relative to control"}, "[3]": {"target": "Serine/threonine-protein kinase SIK2 (Homo sapiens) (UniProt Q9H0K1)", "assay": "Binding affinity to wild-type human full length SIK2 (M1 to N926 residues) expressed in bacterial expression system assessed as residual binding level at 1 uM by Kinomescan method relative to control"}, "[4]": {"target": "Serine/threonine-protein kinase RIO1 (Homo sapiens) (UniProt Q9BRS2)", "assay": "Binding affinity to wild-type human full length RIOK1 (M1 to K568 residues) expressed in bacterial expression system assessed as residual binding level at 1 uM by Kinomescan method relative to control"}, "[5]": {"target": "Hepatocyte growth factor receptor (Homo sapiens) (UniProt P08581)", "assay": "Binding affinity to wild-type human partial length MET (D1010 to S1367 residues) expressed in bacterial expression system assessed as residual binding level at 1 uM by Kinomescan method relative to control"}, "[6]": {"target": "Serine/threonine-protein kinase tousled-like 2 (Homo sapiens) (UniProt Q86UE8)", "sequence (Q86UE8 whole entry, looked up, the tested form may be a part)": "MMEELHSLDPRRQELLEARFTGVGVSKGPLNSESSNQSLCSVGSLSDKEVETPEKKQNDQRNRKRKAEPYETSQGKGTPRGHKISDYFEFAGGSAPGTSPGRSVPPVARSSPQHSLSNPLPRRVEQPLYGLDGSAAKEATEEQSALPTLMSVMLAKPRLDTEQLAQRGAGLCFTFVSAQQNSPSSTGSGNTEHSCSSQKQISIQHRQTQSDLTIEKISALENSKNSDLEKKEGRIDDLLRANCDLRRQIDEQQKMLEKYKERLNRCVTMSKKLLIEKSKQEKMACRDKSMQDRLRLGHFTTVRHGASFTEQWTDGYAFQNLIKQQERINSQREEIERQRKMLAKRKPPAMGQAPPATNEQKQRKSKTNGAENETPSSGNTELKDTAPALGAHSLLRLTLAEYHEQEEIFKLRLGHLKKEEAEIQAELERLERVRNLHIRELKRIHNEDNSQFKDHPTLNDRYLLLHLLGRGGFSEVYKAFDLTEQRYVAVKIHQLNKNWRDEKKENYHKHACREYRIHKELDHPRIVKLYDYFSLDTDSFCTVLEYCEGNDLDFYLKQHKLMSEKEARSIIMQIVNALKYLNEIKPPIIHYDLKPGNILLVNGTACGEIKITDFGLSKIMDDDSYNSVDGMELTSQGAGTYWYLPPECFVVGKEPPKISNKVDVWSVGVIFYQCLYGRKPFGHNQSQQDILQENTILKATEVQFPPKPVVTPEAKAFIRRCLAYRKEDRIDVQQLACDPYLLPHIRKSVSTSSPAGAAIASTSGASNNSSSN", "assay": "Binding affinity to wild-type human partial length TLK2 (E424 to N749 residues) expressed in bacterial expression system assessed as residual binding level at 1 uM by Kinomescan method relative to control"}, "[7]": {"target": "Serine/threonine-protein kinase Nek4 (Homo sapiens) (UniProt P51957)", "sequence (P51957 whole entry, looked up, the tested form may be a part)": "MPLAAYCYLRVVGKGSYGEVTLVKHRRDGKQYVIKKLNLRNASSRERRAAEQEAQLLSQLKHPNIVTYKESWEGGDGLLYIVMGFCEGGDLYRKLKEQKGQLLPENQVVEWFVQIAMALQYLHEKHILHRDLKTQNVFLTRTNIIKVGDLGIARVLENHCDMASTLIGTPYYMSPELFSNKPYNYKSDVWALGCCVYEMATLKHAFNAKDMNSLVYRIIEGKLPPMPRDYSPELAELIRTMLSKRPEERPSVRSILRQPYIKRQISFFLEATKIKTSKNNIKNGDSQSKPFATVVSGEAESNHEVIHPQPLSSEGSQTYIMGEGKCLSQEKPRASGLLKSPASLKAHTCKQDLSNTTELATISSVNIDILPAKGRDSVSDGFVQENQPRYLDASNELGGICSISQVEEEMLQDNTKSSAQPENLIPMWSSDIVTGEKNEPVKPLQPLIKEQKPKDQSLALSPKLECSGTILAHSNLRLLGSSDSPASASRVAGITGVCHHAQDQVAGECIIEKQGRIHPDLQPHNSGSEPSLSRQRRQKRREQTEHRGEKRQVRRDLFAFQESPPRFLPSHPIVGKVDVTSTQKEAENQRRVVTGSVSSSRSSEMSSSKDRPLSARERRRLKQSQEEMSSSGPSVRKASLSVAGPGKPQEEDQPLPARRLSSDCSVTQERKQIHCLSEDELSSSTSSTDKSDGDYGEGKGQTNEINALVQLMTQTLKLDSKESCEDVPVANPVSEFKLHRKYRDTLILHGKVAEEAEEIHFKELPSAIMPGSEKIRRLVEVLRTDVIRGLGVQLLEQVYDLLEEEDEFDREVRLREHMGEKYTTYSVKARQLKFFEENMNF", "assay": "Binding affinity to wild-type human full length NEK4 (M1 to F841 residues) expressed in mammalian expression system assessed as residual binding level at 1 uM by Kinomescan method relative to control"}, "[8]": {"target": "Inhibitor of nuclear factor kappa-B kinase subunit beta (Homo sapiens) (UniProt O14920)", "assay": "Binding affinity to wild-type human full length IKK-beta (M1 to S756 residues) expressed in mammalian expression system assessed as residual binding level at 1 uM by Kinomescan method relative to control"}, "[9]": {"tested_on": "Epidermal growth factor receptor (Homo sapiens), P00533 [UNDEFINED MUTATION]", "assay": "Binding affinity to human partial length EGFR L747-T751del/Sins mutant expressed in bacterial expression system assessed as residual binding level at 1 uM by Kinomescan method relative to control"}, "[10]": {"target": "Serine/threonine-protein kinase SIK3 (Homo sapiens) (UniProt Q9Y2K2)", "assay": "Binding affinity to wild-type human partial length QSK (A90 to L395 residues) expressed in mammalian expression system assessed as residual binding level at 1 uM by Kinomescan method relative to control"}, "[11]": {"tested_on": "Mast/stem cell growth factor receptor Kit (Homo sapiens), P10721 [D816H]", "assay": "Binding affinity to human partial length KIT D816H mutant (I571 to D952 residues) expressed in mammalian expression system assessed as residual binding level at 1 uM by Kinomescan method relative to control"}, "[12]": {"target": "Tyrosine-protein kinase ABL2 (Homo sapiens) (UniProt P42684)", "assay": "Binding affinity to wild-type human ABL2 (A248 to G542 residues) expressed in bacterial expression system assessed as residual binding level at 1 uM by Kinomescan method relative to control"}, "[13]": {"target": "Serine/threonine-protein kinase N1 (Homo sapiens) (UniProt Q16512)", "sequence (Q16512 2-942 limits assumed)": "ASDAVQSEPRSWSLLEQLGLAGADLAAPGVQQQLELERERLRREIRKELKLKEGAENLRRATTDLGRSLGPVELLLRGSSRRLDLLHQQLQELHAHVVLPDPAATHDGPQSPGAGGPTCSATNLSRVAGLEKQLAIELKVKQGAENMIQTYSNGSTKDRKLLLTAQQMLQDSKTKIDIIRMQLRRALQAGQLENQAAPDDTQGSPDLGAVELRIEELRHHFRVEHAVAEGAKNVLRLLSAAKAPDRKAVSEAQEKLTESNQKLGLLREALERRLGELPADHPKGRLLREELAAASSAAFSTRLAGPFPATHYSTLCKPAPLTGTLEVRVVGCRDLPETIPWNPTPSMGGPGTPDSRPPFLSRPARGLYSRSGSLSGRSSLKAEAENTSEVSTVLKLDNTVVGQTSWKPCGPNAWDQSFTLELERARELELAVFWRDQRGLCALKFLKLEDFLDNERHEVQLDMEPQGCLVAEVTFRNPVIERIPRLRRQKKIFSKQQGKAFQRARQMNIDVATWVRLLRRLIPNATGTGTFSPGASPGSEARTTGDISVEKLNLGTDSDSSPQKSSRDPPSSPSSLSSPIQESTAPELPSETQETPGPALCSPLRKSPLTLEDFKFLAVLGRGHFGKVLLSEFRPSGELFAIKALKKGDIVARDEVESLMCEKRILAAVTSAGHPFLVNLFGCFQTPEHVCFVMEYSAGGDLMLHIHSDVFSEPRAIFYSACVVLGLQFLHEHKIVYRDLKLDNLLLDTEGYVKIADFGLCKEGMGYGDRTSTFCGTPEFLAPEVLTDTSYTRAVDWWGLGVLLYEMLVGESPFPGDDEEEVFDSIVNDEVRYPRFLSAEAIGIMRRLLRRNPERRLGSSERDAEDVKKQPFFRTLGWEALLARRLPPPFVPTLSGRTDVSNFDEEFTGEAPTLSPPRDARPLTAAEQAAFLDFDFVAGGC", "assay": "Binding affinity to wild-type human partial length PKN1 (E598 to C948 residues) expressed in bacterial expression system assessed as residual binding level at 1 uM by Kinomescan method relative to control"}, "[14]": {"target": "STE20/SPS1-related proline-alanine-rich protein kinase (Homo sapiens) (UniProt Q9UEW8)", "assay": "Binding affinity to wild-type human partial length STK39 (P43 to I357 residues) expressed in mammalian expression system assessed as residual binding level at 1 uM by Kinomescan method relative to control"}, "[15]": {"target": "Wee1-like protein kinase 2 (Homo sapiens) (UniProt P0C1S8)", "sequence (P0C1S8 whole entry, looked up, the tested form may be a part)": "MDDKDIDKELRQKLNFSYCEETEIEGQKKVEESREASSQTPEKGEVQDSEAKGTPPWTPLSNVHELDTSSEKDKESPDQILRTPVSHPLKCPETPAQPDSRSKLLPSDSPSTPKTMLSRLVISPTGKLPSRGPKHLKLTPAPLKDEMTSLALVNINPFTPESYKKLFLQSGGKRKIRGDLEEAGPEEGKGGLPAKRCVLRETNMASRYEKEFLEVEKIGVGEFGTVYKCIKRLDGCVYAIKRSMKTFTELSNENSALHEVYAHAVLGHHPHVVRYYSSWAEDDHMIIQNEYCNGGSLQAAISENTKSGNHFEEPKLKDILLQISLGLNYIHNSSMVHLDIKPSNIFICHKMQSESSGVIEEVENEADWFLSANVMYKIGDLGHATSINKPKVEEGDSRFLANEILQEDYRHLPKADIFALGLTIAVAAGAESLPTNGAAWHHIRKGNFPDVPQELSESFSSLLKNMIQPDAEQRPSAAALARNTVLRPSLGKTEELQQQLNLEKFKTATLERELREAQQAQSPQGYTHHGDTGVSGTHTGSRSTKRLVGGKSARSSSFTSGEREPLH", "assay": "Binding affinity to wild-type human partial length WEE2 (M204 to K492 residues) expressed in bacterial expression system assessed as residual binding level at 1 uM by Kinomescan method relative to control"}, "[16]": {"target": "Mast/stem cell growth factor receptor Kit (Homo sapiens) (UniProt P10721)", "assay": "Binding affinity to wild-type human partial length KIT (I571 to D952 residues) expressed in bacterial expression system assessed as residual binding level at 1 uM by Kinomescan method relative to control"}, "[17]": {"target": "Proto-oncogene tyrosine-protein kinase ROS (Homo sapiens) (UniProt P08922)", "assay": "Binding affinity to wild-type human partial length ROS1 (A1921 to N2240 residues) expressed in bacterial expression system assessed as residual binding level at 1 uM by Kinomescan method relative to control"}, "[18]": {"target": "Homeodomain-interacting protein kinase 3 (Homo sapiens) (UniProt Q9H422)", "assay": "Binding affinity to wild-type human partial length HIPK3 (M153 to N562 residues) expressed in mammalian expression system assessed as residual binding level at 1 uM by Kinomescan method relative to control"}, "[19]": {"target": "Serine/threonine-protein kinase D2 (Homo sapiens) (UniProt Q9BZL6)", "assay": "Binding affinity to wild-type human partial length PRKD2 (A519 to E838 residues) expressed in bacterial expression system assessed as residual binding level at 1 uM by Kinomescan method relative to control"}, "[20]": {"target": "LIM domain kinase 1 (Homo sapiens) (UniProt P53667)", "sequence (P53667 whole entry, looked up, the tested form may be a part)": "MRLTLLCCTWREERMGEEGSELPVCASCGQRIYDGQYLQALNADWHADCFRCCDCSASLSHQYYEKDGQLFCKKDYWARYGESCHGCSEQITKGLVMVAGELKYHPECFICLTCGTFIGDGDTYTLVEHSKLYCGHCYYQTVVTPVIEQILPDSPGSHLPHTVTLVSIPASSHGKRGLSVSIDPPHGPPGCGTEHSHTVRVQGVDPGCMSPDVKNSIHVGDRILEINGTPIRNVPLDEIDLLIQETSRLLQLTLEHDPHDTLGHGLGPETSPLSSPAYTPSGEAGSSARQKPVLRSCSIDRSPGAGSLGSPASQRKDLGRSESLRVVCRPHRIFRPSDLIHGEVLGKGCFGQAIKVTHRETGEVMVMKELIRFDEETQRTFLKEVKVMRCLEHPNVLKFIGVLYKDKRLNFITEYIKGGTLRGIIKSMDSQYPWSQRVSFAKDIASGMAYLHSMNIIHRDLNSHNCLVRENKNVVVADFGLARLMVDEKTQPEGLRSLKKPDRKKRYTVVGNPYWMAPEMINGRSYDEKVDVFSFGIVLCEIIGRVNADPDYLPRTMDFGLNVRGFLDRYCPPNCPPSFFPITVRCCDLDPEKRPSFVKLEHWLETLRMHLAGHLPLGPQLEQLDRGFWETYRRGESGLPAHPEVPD", "assay": "Binding affinity to wild-type human full length LIMK1 (M1 to D647 residues) expressed in bacterial expression system assessed as residual binding level at 1 uM by Kinomescan method relative to control"}, "[21]": {"target": "Serine/threonine-protein kinase B-raf (Homo sapiens) (UniProt P15056)", "sequence (P15056 whole entry, the tested form may be a part)": "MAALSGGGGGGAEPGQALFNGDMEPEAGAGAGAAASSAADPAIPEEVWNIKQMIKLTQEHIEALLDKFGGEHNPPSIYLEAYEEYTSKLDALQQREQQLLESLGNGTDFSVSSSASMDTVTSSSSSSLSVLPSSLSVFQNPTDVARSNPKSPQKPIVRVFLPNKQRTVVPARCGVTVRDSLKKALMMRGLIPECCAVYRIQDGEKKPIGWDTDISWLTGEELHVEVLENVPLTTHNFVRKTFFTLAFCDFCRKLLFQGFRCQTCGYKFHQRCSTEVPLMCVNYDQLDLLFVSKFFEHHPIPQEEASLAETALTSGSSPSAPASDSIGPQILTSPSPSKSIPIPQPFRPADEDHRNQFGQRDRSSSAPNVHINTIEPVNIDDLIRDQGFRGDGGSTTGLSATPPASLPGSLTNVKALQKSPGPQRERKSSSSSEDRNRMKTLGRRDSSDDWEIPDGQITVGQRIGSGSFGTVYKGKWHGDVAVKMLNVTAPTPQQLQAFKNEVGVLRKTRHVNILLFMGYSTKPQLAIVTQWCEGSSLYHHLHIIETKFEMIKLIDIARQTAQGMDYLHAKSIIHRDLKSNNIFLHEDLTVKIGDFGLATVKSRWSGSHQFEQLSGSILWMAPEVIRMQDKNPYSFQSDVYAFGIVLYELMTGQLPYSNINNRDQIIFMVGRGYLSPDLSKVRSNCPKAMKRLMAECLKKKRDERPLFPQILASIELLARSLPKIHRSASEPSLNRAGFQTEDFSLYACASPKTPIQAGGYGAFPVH", "assay": "Binding affinity to wild-type human partial length BRAF (S429 to E741 residues) expressed in mammalian expression system assessed as residual binding level at 1 uM by Kinomescan method relative to control"}, "[22]": {"target": "Serine/threonine-protein kinase 38-like (Homo sapiens) (UniProt Q9Y2H1)", "sequence (Q9Y2H1 2-464 limits assumed)": "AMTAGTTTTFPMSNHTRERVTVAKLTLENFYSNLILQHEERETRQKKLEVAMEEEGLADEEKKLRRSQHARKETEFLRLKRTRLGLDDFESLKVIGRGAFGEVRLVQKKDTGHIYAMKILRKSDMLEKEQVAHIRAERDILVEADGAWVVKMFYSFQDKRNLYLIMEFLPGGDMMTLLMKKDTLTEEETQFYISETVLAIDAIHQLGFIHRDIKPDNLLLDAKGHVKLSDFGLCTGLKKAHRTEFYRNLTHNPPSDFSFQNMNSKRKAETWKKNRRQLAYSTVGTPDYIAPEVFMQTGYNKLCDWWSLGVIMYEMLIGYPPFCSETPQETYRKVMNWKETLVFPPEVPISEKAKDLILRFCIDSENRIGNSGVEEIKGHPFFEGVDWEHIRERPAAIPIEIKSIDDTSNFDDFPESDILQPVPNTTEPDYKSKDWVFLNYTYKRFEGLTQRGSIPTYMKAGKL", "assay": "Binding affinity to wild-type human partial length NDR2 (N34 to E447 residues) expressed in bacterial expression system assessed as residual binding level at 1 uM by Kinomescan method relative to control"}, "[23]": {"target": "Tyrosine-protein kinase Fer (Homo sapiens) (UniProt P16591)", "assay": "Binding affinity to wild-type human partial length FER (S542 to T822 residues) expressed in bacterial expression system assessed as residual binding level at 1 uM by Kinomescan method relative to control"}, "[24]": {"target": "Tyrosine-protein kinase JAK3 (Homo sapiens) (UniProt P52333)", "assay": "Binding affinity to wild-type human partial length JAK3 JH1 catalytic domain (I781 to S1124 residues) expressed in mammalian expression system assessed as residual binding level at 1 uM by Kinomescan method relative to control"}}}
{"smiles": "CC(C)Nc1sc(C(=O)c2ccc(Cl)s2)c(N)c1C#N", "values": [{"measurement": "Activity", "setting": "[1]", "value": 95, "unit": "%"}, {"measurement": "Activity", "setting": "[2]", "value": 68, "unit": "%"}, {"measurement": "Activity", "setting": "[3]", "value": 92, "unit": "%"}, {"measurement": "Activity", "setting": "[4]", "value": 74, "unit": "%"}, {"measurement": "Activity", "setting": "[5]", "value": 68, "unit": "%"}, {"measurement": "Activity", "setting": "[6]", "value": 100, "unit": "%"}, {"measurement": "Activity", "setting": "[7]", "value": 80, "unit": "%"}, {"measurement": "Activity", "setting": "[8]", "value": 100, "unit": "%"}, {"measurement": "Activity", "setting": "[9]", "value": 100, "unit": "%"}, {"measurement": "Activity", "setting": "[10]", "value": 100, "unit": "%"}, {"measurement": "Activity", "setting": "[11]", "value": 77, "unit": "%"}, {"measurement": "Activity", "setting": "[12]", "value": 95, "unit": "%"}, {"measurement": "Activity", "setting": "[13]", "value": 56, "unit": "%"}, {"measurement": "Activity", "setting": "[14]", "value": 72, "unit": "%"}, {"measurement": "Activity", "setting": "[15]", "value": 94, "unit": "%"}, {"measurement": "Activity", "setting": "[16]", "value": 76, "unit": "%"}, {"measurement": "Activity", "setting": "[17]", "value": 82, "unit": "%"}, {"measurement": "Activity", "setting": "[18]", "value": 89, "unit": "%"}, {"measurement": "Activity", "setting": "[19]", "value": 100, "unit": "%"}, {"measurement": "Activity", "setting": "[20]", "value": 55, "unit": "%"}, {"measurement": "Activity", "setting": "[21]", "value": 89, "unit": "%"}, {"measurement": "Activity", "setting": "[22]", "value": 89, "unit": "%"}, {"measurement": "Activity", "setting": "[23]", "value": 81, "unit": "%"}, {"measurement": "Activity", "setting": "[24]", "value": 80, "unit": "%"}]}
